# According to US11963960B2 (Flash Therapeutics, LLC, priority 2020, dated 2024):
# Read-outs that look alike come from different tables or passages of the source.
# Target: N-terminally GST-tagged HCK (75-526) (Homo sapiens (Human), UniProt P08631)
# Experiment: HCK Kinase Assay (ProFluor Src-Family Kinase Assay)
# Format: biochemical
# Outline: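 ProFluor Src-family format: after the kinase reaction, protease solution was added for 60 min at room temperature (22-25° C), then stabilizer.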
# [1] = HCK inhibitory activity, 50 μM ATP, read-out: HCK Activity
# Chain of N-terminally GST-tagged HCK (75-526) (P08631 75-526): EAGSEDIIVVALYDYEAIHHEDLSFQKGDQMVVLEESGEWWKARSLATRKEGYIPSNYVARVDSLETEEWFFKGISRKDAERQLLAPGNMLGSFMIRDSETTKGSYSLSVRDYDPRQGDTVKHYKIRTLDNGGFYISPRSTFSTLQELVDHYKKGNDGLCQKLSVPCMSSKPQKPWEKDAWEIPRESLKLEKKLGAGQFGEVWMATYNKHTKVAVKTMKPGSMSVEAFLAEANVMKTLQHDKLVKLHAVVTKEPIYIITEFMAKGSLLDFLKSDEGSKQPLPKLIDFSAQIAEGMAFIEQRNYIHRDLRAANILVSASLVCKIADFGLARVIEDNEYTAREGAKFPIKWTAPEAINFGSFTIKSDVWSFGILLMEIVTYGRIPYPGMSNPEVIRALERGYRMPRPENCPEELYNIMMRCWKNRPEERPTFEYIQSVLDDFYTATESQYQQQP
Structure (SMILES),IC50 [1],IC50
"CCc1cc(NC(=O)Nc2ccc(-c3cn([C@H]4CC[C@H](N5CCN(C)CC5)CC4)c4ncnc(N)c34)cc2)no1 [Example 117, 1-(4-(4-amino-7-((trans)-4-(4-methylpiperazin-1-yl)cyclohexyl)-7H-pyrrolo[2,3-d]pyrimidin-5-yl)phenyl)-3-(5-ethylisoxazol-3-yl)urea]",50 to 250 nM,
"CN1CCC([C@H]2OC[C@@H](n3cc(-c4ccc(Oc5ccccc5)cc4)c4c(N)ncnc43)CO2)CC1 [Example 146, 7-((2s,5s)-2-(1-Methylpiperidin-4-yl)-1,3-dioxan-5-yl)-5-(4-phenoxyphenyl)-7H-pyrrolo[2,3-d]pyrimidin-4-amine]",< 50 nM,
"CN[C@@H]1CCCN([C@H]2CC[C@H](n3cc(-c4ccc(Oc5ccccc5)cc4)c4c(N)ncnc43)CC2)C1 [Example 60, 7-((trans)-4-((R)-3-(methylamino)piperidin-1-yl)cyclohexyl)-5-(4-phenoxyphenyl)-7H-pyrrolo[2,3-d]pyrimidin-4-amine]",< 50 nM,
"[2H]c1c([2H])c([2H])c(Oc2ccc(-c3cn([C@H]4CC[C@H](N5CCN(C)CC5)CC4)c4ncnc(N)c34)cc2)c([2H])c1[2H] (single isomer, unassigned) [Example 104, 7-((trans)-4-(4-methylpiperazin-1-yl)cyclohexyl)-5-(4-pentadeuteriophenoxyphenyl)-7H-pyrrolo[2,3-d]pyrimidin-4-amine]",,< 50 nM
"Nc1ncnc2c1c(-c1ccc(Oc3ccccc3)cc1)cn2[C@H]1CC[C@H](N2CCN3CCCC3C2)CC1 (stereo partly drawn) [Example 44, 7-((trans)-4-(hexahydropyrrolo[1,2-a]pyrazin-2(1H)-yl)cyclohexyl)-5-(4-phenoxyphenyl)-7H-pyrrolo[2,3-d]pyrimidin-4-amine]",< 50 nM,
"Nc1ncnc2c1c(-c1ccc(Oc3ccccc3)cc1)nn2[C@H]1CC[C@H](n2cc(CO)cn2)CC1 [Example 138, (1-((trans)-4-(4-Amino-3-(4-phenoxyphenyl)-1H-pyrazolo[3,4-d]pyrimidin-1-yl)cyclohexyl)-1H-pyrazol-4-yl)methanol]",< 50 nM,
"C[C@H]1CN([C@H]2CC[C@@H](n3cc(-c4ccc(Oc5ccccc5)cc4)c4c(N)ncnc43)CC2)CCN1 [Example 20, 7-((cis)-4-((S)-3-methylpiperazin-1-yl)cyclohexyl)-5-(4-phenoxyphenyl)-7H-pyrrolo [2,3-d]pyrimidin-4-amine]",< 50 nM,
"C[C@H]1CN([C@H]2CC[C@@H](n3cc(-c4ccc(NC(=O)Nc5cc(C(C)(C)C)on5)cc4)c4c(N)ncnc43)CC2)CCN1 [Example 130, 1-(4-(4-amino-7-((cis)-4-((S)-3-methylpiperazin-1-yl)cyclohexyl)-7H-pyrrolo[2,3-d]pyrimidin-5-yl)phenyl)-3-(5-(tert-butyl)isoxazol-3-yl)urea]",50 to 250 nM,
"CN1CCN([C@H]2CC[C@H](n3cc(-c4ccc(C(O)c5ccccc5)cc4)c4c(N)ncnc43)CC2)CC1 (stereo partly drawn) [Example 114, (4-(4-amino-7-((trans)-4-(4-methylpiperazin-1-yl)cyclohexyl)-7H-pyrrolo[2,3-d]pyrimidin-5-yl)phenyl)(phenyl)methanol]",< 50 nM,
"Nc1ncnc2c1c(-c1ccc(Oc3ccccc3)cc1)cn2C1CCC2(CC1)NC(=O)N(c1ccncc1)C2=O (stereo not shown) [Example 93, 8-(4-Amino-5-(4-phenoxyphenyl)-7H-pyrrolo[2,3-d]pyrimidin-7-yl)-3-(pyridin-4-yl)-1,3-diazaspiro [4.5] decane-2,4-dione]",50 to 250 nM,
"CN(C)[C@H]1CN([C@H]2CC[C@H](n3cc(-c4ccc(Oc5ccccc5)cc4)c4c(N)ncnc43)CC2)C[C@H]1O [Example 71, (3R,4S)-1-((trans)-4-(4-amino-5-(4-phenoxyphenyl)-7H-pyrrolo[2,3-d]pyrimidin-7-yl)cyclohexyl)-4-(dimethylamino)pyrrolidin-3-ol]",< 50 nM,
"Nc1ncnc2c1c(-c1ccc(Oc3ccccc3)cc1)cn2C1CCC(O)(Cn2cnnn2)CC1 (stereo not shown) [Example 102, 1-((1H-Tetrazol-1-yl)methyl)-4-(4-amino-5-(4-phenoxyphenyl)-7H-pyrrolo[2,3-d]pyrimidin-7-yl)cyclohexanol]",< 50 nM,
"C[C@@H]1CN([C@H]2CC[C@@H](n3cc(-c4ccc(Oc5ccccc5)cc4F)c4c(N)ncnc43)CC2)CCN1 [Example 16, 5-(2-fluoro-4-phenoxyphenyl)-7-((cis)-4-((R)-3-methylpiperazin-1-yl)cyclohexyl)-7H-pyrrolo[2,3-d]pyrimidin-4-amine]",50 to 250 nM,
"Nc1ncnc2c1c(-c1ccc(Oc3ccccc3)cc1)cn2[C@H]1CC[C@H](N2CCC[C@@H](N)C2)CC1 [Example 59, 7-((trans)-4-((R)-3-aminopiperidin-1-yl)cyclohexyl)-5-(4-phenoxyphenyl)-7H-pyrrolo[2,3-d]pyrimidin-4-amine]",< 50 nM,
"Nc1ncnc2c1c(-c1ccc(Oc3ccccc3)cc1)cn2[C@H]1CC[C@H](N2CCSCC2)CC1 [Example 63, 5-(4-phenoxyphenyl)-7-((trans)-4-thiomorpholinocyclohexyl)-7H-pyrrolo[2,3-d]pyrimidin-4-amine]",250 to 10000 nM,
"CN1CCC(N2CCC(n3cc(-c4ccc(NC(=O)Nc5cc(C(C)(C)C)on5)cc4)c4c(N)ncnc43)CC2)CC1 [Example 151, 1-(4-(4-amino-7-(1′-methyl-[1,4′-bipiperidin]-4-yl)-7H-pyrrolo[2,3-d]pyrimidin-5-yl)phenyl)-3-(5-(tert-butyl)isoxazole-3-yl)urea]",< 50 nM,

Structure (SMILES),IC50 [1],IC50
CN1CCN([C@H]2CC[C@@H](c3cc(-c4ccc(NC(=O)Nc5cc(C(C)(C)C)on5)cc4)c4c(N)ncnn43)CC2)CC1 [Example 172],< 50 nM,
"Nc1ncnc2c1c(-c1ccc(Oc3ccccc3)cc1)cn2[C@H]1CC[C@H](N2CCC(S(N)(=O)=O)CC2)CC1 [Example 69, 1-((trans)-4-(4-amino-5-(4-phenoxyphenyl)-7H-pyrrolo[2,3-d]pyrimidin-7-yl)cyclohexyl)piperidine-4-sulfonamide]",50 to 250 nM,
"Nc1ncnc2c1c(-c1ccc(Oc3ccccc3)cc1)cn2[C@H]1CC[C@@H](N2CCN3C(=O)CCC3C2)CC1 (stereo partly drawn) [Example 43, 2-((cis)-4-(4-amino-5-(4-phenoxyphenyl)-7H-pyrrolo[2,3-d]pyrimidin-7-yl)cyclohexyl)hexahydropyrrolo[1,2-a]pyrazin-6(2H)-one]",< 50 nM,
"Nc1ncnc2c1c(-c1ccc(Oc3ccccc3)cc1)cn2[C@H]1CC[C@H](N2CCC3(CCNC3)C2)CC1 (relative stereo) [Example 136, 7-((trans)-4-(2,7-diazaspiro[4.4]nonan-2-yl)cyclohexyl)-5-(4-phenoxyphenyl)-7H-pyrrolo[2,3-d]pyrimidin-4-amine]",50 to 250 nM,
"Nc1ncnc2c1c(-c1ccc(Oc3ccccc3)cc1)cn2C1CCC2(CCNCC2)CC1 [Example 141, 5-(4-phenoxyphenyl)-7-(3-azaspiro[5.5]undecan-9-yl)-7H-pyrrolo[2,3-d]pyrimidin-4-amine]",< 50 nM,
"Nc1ncnc2c1c(-c1ccc(Oc3ccccc3)cc1F)nn2[C@H]1CC[C@H](N2CCN(CCO)CC2)CC1 [Example 10, 2-(4-((trans)-4-(4-amino-3-(2-fluoro-4-phenoxyphenyl)-1H-pyrazolo[3,4-d]pyrimidin-1-yl)cyclohexyl)piperazin-1-yl)ethanol]",< 50 nM,
"CN(C)[C@@H]1CN([C@H]2CC[C@@H](n3cc(-c4ccc(Oc5ccccc5)cc4F)c4c(N)ncnc43)CC2)C[C@H]1O [Example 74, (3R,4R)-1-((cis)-4-(4-amino-5-(2-fluoro-4-phenoxyphenyl)-7H-pyrrolo[2,3-d]pyrimidin-7-yl)cyclohexyl)-4-(dimethylamino)pyrrolidin-3-ol]",50 to 250 nM,
"NC(=O)C=C1CCC(n2cc(-c3ccc(Oc4ccccc4)cc3)c3c(N)ncnc32)CC1 (stereo not shown) [Example 94, 2-(4-(4-Amino-5-(4-phenoxyphenyl)-7H-pyrrolo[2,3-d]pyrimidin-7-yl)cyclohexylidene)acetamide]",< 50 nM,
"CC(C)c1cc(NC(=O)Nc2ccc(-c3cn([C@H]4CC[C@H](N5CCN(C)CC5)CC4)c4ncnc(N)c34)cc2)no1 [Example 119, 1-(4-(4-amino-7-((trans)-4-(4-methylpiperazin-1-yl)cyclohexyl)-7H-pyrrolo[2,3-d]pyrimidin-5-yl)phenyl)-3-(5-isopropylisoxazol-3-yl)urea]",< 50 nM,
"CN1CCN([C@H]2CC[C@H](n3cc(-c4ccc(C(=O)c5ccccc5)cc4)c4c(N)ncnc43)CC2)CC1 [Example 113, (4-(4-amino-7-((trans)-4-(4-methylpiperazin-1-yl)cyclohexyl)-7H-pyrrolo[2,3-d]pyrimidin-5-yl)phenyl)(phenyl)methanone]",< 50 nM,
"Nc1ncnc2c1c(-c1ccc(Oc3ccccc3)cc1)cn2[C@H]1CC[C@@H](N2CCC3(CCNC3)C2)CC1 (relative stereo) [Example 137, 7-((cis)-4-(2,7-diazaspiro[4.4]nonan-2-yl)cyclohexyl)-5-(4-phenoxyphenyl)-7H-pyrrolo[2,3-d]pyrimidin-4-amine]",50 to 250 nM,
"Nc1ncnc2c1c(-c1ccc(Oc3ccccc3)cc1)cn2[C@H]1CC[C@@H](NC2CNC2)CC1 [Example 84, 7-((cis)-4-(azetidin-3-ylamino)cyclohexyl)-5-(4-phenoxyphenyl)-7H-pyrrolo[2,3-d]pyrimidin-4-amine]",50 to 250 nM,
"C[C@H]1CC(N2CCC(n3cc(-c4ccc(NC(=O)Nc5cc(C(C)(C)C)on5)cc4)c4c(N)ncnc43)CC2)CCN1 (stereo partly drawn) [Example 156, 1-(4-(4-amino-7-((2′S)-2′-methyl-[1,4′-bipiperidin]-4-yl)-7H-pyrrolo[2,3-d]pyrimidin-5-yl)phenyl)-3-(5-(tert-butyl)isoxazol-3-yl)urea]",< 50 nM,
"COc1cc(-c2cn([C@H]3CO[C@H](C4CCN(C)CC4)OC3)c3ncnc(N)c23)ccc1Oc1ccccc1 [Example 131, 5-(3-methoxy-4-phenoxyphenyl)-7-((trans)-2-(1-methylpiperidin-4-yl)-1,3-dioxan-5-yl)-7H-pyrrolo[2,3-d]pyrimidin-4-amine]",50 to 250 nM,
COc1cc(-c2nn([C@H]3CC[C@H](N4CCN(C)CC4)CC3)c3ncnc(N)c23)ccc1Oc1ccccc1 [Example 110],< 50 nM,
